In patent publication US9629830B2, “EphA4 inhibitors as neuroprotective agents” (The Hong Kong University of Science and Technology, priority 2013, dated 2017):

Experiments:
[1] = target: T1, extracellular domain of EphA4 (Homo sapiens, UniProt P54764); assay: In vitro pull-down of recombinant EphA4-Fc with biotinylated Rhy on streptavidin beads; format: binding; conditions: western blot
T1 construct: purchased R&D Systems
Method: For the pull-down analysis, Bio-Rhy was bound to streptavidin magnetic beads for 1 h, the beads was then incubated with recombinant EphA4-Fc or EphB2-Fc in the presence of 0.5% BSA for 1 h. After incubation, the beads were washed 4 times with DPBS and the presence of Eph in the complex was determined by western blot analysis.

[2] = system: EphA4-dependent growth cone collapse in hippocampal neurons; assay: EphA4-dependent (ephrin-A1-stimulated) growth cone collapse assay; format: cell-based, rat; conditions: for ephrin-A1-stimulated growth cone collapse: cultured hippocampal neurons
Method: Ephrin-A1-Fc was pre-clustered with goat anti-human Fc antibody (1:4.5)^24 and incubated at room temperature for 60 min before use. The growth cone collapse assay was performed in hippocampal neurons with ephrin-A1 0.1 μg/mL as described previously^61.
For EphA4 clustering, neurons were stained with anti-EphA4 and anti-Tau-1 antibodies. For the growth cone collapse assay, neurons were stained with Alexa Fluor 555-conjugated phalloidin (Molecular Probes) for filamentous actin and anti-Tau-1 antibody for axons. Collapsed growth cones were scored in a double-blinded manner. The experiments were repeated at least 3 times, and >50 neurons were analyzed for each experiment. Data are presented as mean±SEM.
To screen for small molecule EphA4 inhibitors, the inventors performed a molecular docking analysis using a small molecule library. […] Their ability in inhibiting EphA4 inhibiting the EphA4-dependent growth cone collapse using cultured hippocampal neurons was performed.

[3] = system: Aβ-induced reduction of neurotransmission in hippocampal neurons; assay: mEPSC recording in Aβ-treated cultured hippocampal neurons; format: cell-based, rat
Method: Primary cortical and hippocampal neurons were prepared from embryonic day 18-19 rat embryos as described previously^24. Briefly, cortical neurons (6×10^6 per plate) were plated on 100-mm culture dishes coated with poly-D-lysine (12.5 μg/mL; Sigma). Rat hippocampal neurons were seeded on 18-mm coverslips coated with poly-D-lysine (50 μg/mL) at a density of 0.5×10^5/18-mm coverslip for immunocytochemical analysis, 0.1×10^5/18-mm coverslip for growth cone collapse assay, or 1×10^5 or 1.5×10^5/18-mm coverslip for mEPSC recording. Neurons were fed Neurobasal medium (Invitrogen) supplemented with 2% B27 (Invitrogen). Acute brain slices were prepared from P15-P17 Sprague-Dawley rats. Briefly, the rats were rapidly decapitated, and their brains were immersed in ice-cold artificial cerebrospinal fluid (ACSF). The hippocampus was dissected, and 300-μm-thick slices were prepared using a vibratome (Lieca). The slices were then transferred into an incubating chamber containing circulating ACSF equilibrated with 95% O2+5% CO2 and held at room temperature for at least 2 h for recovery prior to experiments^65.
For miniature EPSC recordings, hippocampal neurons at ˜25-28 DIV were co-treated with or without 500 nM Aβ together with the testing reagents for 24 h. Whole-cell patch-clamp recordings were made at room temperature with external solution containing (in mM) 110 NaCl, 5 KCl, 2 CaCl2, 0.8 MgCl2, 10 HEPES, and 10 D-glucose (pH 7.4) as well as an internal solution containing (in mM) 135 CsCl2, 10 HEPES, 2 MgCl2, 4 NaATP, 0.4 NaGTP, and 0.5 EGTA (pH 7.2)^24,27. Picrotoxin ([…]) was included in the external solution to block GABAergic IPSCs along with 0.5 μM TTX to prevent action potential-evoked EPSCs. For miniature EPSC recordings, cells were held at −70 mV. The pipette resistances for these experiments were typically 3-5 MΩ, while series resistances were 15-20 MΩ. The minis from each cell was recorded for 1 min in each condition. The measurement of mEPSC was according to that described in Mini Analysis Program for measuring AMPA receptor EPSCs (Synaptosoft Inc.). Only recording epochs in which series and input resistances varied <10% were analyzed. Data are presented as the mean±SEM of at least 3 experiments.

EphA4 [4] = target: EphA4 (Homo sapiens, UniProt P54764); assay: Inhibition of EphA4 signaling (assay not specified)
Sequence of EphA4 (Homo sapiens, UniProt P54764) (P54764 20-986, species assumed): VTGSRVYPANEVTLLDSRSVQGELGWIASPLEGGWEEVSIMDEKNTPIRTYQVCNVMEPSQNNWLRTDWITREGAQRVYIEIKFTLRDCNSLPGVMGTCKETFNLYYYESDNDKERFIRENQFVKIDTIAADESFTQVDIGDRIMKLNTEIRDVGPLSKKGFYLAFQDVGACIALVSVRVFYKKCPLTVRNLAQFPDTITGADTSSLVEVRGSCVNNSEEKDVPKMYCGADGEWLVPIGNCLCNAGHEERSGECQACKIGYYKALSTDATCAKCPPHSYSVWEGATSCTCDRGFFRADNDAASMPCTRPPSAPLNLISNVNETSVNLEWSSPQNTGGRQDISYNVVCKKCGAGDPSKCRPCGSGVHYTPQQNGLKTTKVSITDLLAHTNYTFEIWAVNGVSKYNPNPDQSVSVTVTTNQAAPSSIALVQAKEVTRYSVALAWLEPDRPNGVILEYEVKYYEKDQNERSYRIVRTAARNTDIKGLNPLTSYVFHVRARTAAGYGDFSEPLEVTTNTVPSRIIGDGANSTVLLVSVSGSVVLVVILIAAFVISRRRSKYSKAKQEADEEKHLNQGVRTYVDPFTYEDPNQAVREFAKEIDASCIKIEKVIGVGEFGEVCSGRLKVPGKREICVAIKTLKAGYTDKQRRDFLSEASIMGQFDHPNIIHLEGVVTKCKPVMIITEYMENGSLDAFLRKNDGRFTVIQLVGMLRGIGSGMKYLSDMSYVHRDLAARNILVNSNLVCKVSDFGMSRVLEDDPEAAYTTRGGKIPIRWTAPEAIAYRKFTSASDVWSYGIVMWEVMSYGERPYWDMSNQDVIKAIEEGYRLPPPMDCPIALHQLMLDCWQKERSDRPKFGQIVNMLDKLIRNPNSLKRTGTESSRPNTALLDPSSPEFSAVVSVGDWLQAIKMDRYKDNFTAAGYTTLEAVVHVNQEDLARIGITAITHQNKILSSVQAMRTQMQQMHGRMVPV

[5] = system: Aβ-induced impairment of hippocampal LTP; assay: HFS-induced LTP (fEPSP slope) in acute hippocampal slices treated with Aβ; format: cell-based, mouse
Method: Oligomeric Aβ (Aβ) was prepared as described previously^59,60. Briefly, 0.5 mg monomeric Aβ1-42 was dissolved in 22.2 μL dry DMSO and then diluted in ice-cold phenol-red free F-12 medium to yield a final Aβ concentration of 100 μM. The Aβ solution was incubated at 4° C. for 24 h and then centrifuged at 14,000×g for 10 min. The supernatant was frozen in liquid nitrogen and stored at −20° C. for up to 1 month. Unless specified, cultured neurons or hippocampal slices were typically treated with Aβ at 500 nM.
(§1) For LTP recordings, mouse brains were immediately dissected after sacrifice and soaked in ice-cold 95% O2/5% CO2 (aCSF)^58. Brain slices (300 μm thick) were prepared using a vibrating tissue slicer (HM650V; Thermo), and soaked in oxygenated buffer for 2 h at 32° C. The hippocampal regions were resected and placed at the center of a MED-P210A probe (Panasonic International Inc) with 64 embedded recording electrodes. The slices were then perfused with Aβ at 500 nM in oxygenated aCSF for 2 h before LTP induction^70. For treatment with EphA4 inhibitors, the slices were pretreated with peptides or chemicals for 1 h before application of Aβ. fEPSPs were recorded using a MED64 multichannel recording system, and the data were collected from the dendritic layer of area CA1 at a sampling rate of 10 kHz. For each slice, the baseline stimulus intensity was set at the level that elicited ˜50% of the maximum fEPSP response determined according to the input-output curve. LTP was induced by 3 trains of HFS (100 Hz, 1 s, delivered 30 s apart). The magnitude of LTP was quantified as a percentage change in the fEPSP slope (10%-90%) taken during the 60-min interval after LTP induction.

EphA4 [6] = target: T2, EphA4 (Rattus norvegicus, UniProt D3ZZK3); assay: Aβ-stimulated EphA4 tyrosine phosphorylation in acute hippocampal slices; format: cell-based; conditions: KYL 0.5 h pretreatment then Aβ 2 h
T2 construct: endogenous in cells; host or cells: primary rat cortical neurons (A5), primary rat hippocampal neurons (A7)
T2 sequence (D3ZZK3 20-986): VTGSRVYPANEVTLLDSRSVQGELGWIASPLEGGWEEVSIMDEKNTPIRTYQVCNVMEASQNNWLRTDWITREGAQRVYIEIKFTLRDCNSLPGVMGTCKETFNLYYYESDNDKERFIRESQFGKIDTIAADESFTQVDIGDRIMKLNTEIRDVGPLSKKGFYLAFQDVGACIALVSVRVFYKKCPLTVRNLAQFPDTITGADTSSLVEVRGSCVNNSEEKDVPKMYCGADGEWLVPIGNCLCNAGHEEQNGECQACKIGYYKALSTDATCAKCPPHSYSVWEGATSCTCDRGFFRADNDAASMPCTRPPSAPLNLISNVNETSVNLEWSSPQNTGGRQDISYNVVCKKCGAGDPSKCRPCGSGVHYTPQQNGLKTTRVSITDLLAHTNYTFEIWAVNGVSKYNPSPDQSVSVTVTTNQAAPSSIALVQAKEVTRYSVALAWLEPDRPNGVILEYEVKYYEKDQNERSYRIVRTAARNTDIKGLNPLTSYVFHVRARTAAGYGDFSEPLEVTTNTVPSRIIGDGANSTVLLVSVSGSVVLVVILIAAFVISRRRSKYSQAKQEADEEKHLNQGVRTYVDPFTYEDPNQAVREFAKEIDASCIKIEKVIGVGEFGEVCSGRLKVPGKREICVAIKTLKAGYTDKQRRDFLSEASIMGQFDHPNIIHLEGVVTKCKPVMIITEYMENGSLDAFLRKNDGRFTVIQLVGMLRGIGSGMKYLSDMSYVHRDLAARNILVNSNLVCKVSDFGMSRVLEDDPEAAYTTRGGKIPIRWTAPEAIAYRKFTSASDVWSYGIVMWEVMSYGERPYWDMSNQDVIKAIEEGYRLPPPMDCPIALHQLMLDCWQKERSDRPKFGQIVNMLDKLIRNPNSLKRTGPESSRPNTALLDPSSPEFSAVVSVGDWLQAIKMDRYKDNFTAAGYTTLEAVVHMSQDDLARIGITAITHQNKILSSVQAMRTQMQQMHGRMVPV
Method: Hippocampal synaptosomes were prepared as described previously^67. Acute hippocampal slices from P15-P17 rats were lysed in radioimmunoprecipitation assay (RIPA) buffer (1% Triton X-100, 1% sodium deoxycholate, 0.1% SDS, 150 mM NaCl, 10 mM sodium phosphate, 2 mM EDTA, and 0.2% sodium vanadate) with various protease inhibitors. For the Cdk5 kinase assay, cultured cortical neurons [16 days in vitro (DIV)] were lysed in lysis buffer A (20 mM Tris [pH 7.6], 150 mM NaCl, 1 mM EDTA, 1 mM EGTA, 1 mM NaF, and 0.5% Nonidet P-40) with various protease inhibitors. Western blot analysis was performed as described previously^24.
For the immunoprecipitation assay, lysates were immunoprecipitated with the corresponding antibody for 2 h at 4° C. followed by incubation with protein G Sepharose for 1 h at 4° C.^24. The samples were washed with RIPA buffer or buffer A and resuspended in SDS sample buffer. EphA4 tyrosine phosphorylation was detected by western blot analysis using 4G10 antibody.

[7] = system: Aβ-triggered reduction of dendritic spines in hippocampal neurons; assay: Dendritic spine analysis in Aβ-treated hippocampal neurons; format: cell-based, rat
Method: Cultured rat hippocampal neurons were transfected with GFP plasmid at 14-16 DIV and exposed to Aβ at 24-28 DIV for 24 h after treatment with 30 μM KYL peptide. The neurons were fixed with 4% paraformaldehyde and examined using confocal microscopy using a 63× objective lens as previously described^24.

APP/PS1 mutant mice = assay: HFS-induced hippocampal LTP in WT and APP/PS1 mice after in vivo treatment; design: species or system mouse; conditions: KYL infused by osmotic pump (17 μg, ~3 weeks)
Text: APP/PS1 double-transgenic mice were obtained from Jackson Laboratory (B6C3-Tg[APPswe, PSEN1dE9]85Dbo/J)^66. These mice were generated by incorporating a human/murine APP construct bearing the Swedish double mutation and the exon-9-deleted PSEN1 mutation (APPswe+PSEN1/dE9). APP transgenic mice (Tg2576) expressing a double mutant of human AβPP (Lys^670→Asn^670, Met^671→Leu^671) were also used^31. Both sexes were used for experiments, and all mice used in this study were produced by the Animal Care Facility of The Hong Kong University of Science and Technology. The genotype was confirmed by polymerase chain reaction analysis of tail biopsies. Four to five mice of the same sex were housed in a cage with food and water ad libitum with a 12-hour light/dark cycle.
To investigate the effect of blocking EphA4 signaling by KYL peptide in AD mice, 4-5-month-old AD transgenic mice were implanted with Alzet mini-osmotic pumps, model 1004, pumping its contents at 0.11 μL/h for 28 days. Pumps were loaded with either 0.23 μg/μL KYL peptide (17 μg) or vehicle solvent in artificial cerebrospinal fluid (CSF). The mini-osmotic pumps were adjusted intracerebroventricularly in the right hemisphere. EphA4 in the CA1 regions of APP/PS1 mice was knocked down by injecting vesicular stomatitis virus glycoprotein G-pseudotyped lentiviral particles with pFUGW-shEphA4 bilaterally into the corresponding regions as described previously^58.
as §1, with “The hippocampal regions were resected and placed at the center of a MED-P210A probe (Panasonic International Inc) with 64 embedded recording electrodes. The slices were then perfused with Aβ at 500 nM in oxygenated aCSF for 2 h before LTP induction^70.” left out, “LTP was induced by 3 trains of HFS (100 Hz, 1 s, delivered 30 s apart).” left out
WT and APP/PS1 mutant (Tg) mice were orally administered with corylin ([…]) by daily gavage for 3-4 weeks prior to LTP measurements. LTP induced by 3 trains of HFS (100 Hz for 1 s delivered 30 s apart) in the CA1 region of the SC pathway of the hippocampus was measured. The magnitude of LTP was quantified as the percentage change in the fEPSP slope (10-90%) taken during the 60-min interval after LTP induction.

EphA4 (HT-22 cells) = target: T3, EphA4 (HT-22 cells) (Mus musculus, UniProt Q03137); assay: Cell-based binding of biotinylated ephrin-A1 to the surface of HT-22 cells; conditions: 10 min pre-incubation; Rhy 300 μM, KYL 100 μM (FIG. 10); biotinylated ephrin-A1 0.5 μg/mL
T3 construct: HT-22 cells, a cell line that expresses EphA4; endogenous in cells; host or cells: HT-22 cells
T3 sequence (Q03137 20-986): as the sequence (D3ZZK3 20-986) above, with T270S, Q559K, P874S counted along it
Method: HT-22 cells were seeded on poly-D-lysine coverslips. […] The cells were then fixed with 4% paraformaldehyde and then immunostained with Alexa Fluor 488-conjugated Streptavidin antibody (Molecular Probes) for surfacing labeling of biotinylated ephrin-A1.

[8] = inhibitor (Cpd1 500 μM, Ros 10 μM) + Aβ, Aβ alone 818.1±28.2 ms
[9] = inhibitor alone (Cpd1 500 μM, Ros 10 μM), control 454.1±12.5 ms

T1 sequence (P54764 20-547 limits assumed): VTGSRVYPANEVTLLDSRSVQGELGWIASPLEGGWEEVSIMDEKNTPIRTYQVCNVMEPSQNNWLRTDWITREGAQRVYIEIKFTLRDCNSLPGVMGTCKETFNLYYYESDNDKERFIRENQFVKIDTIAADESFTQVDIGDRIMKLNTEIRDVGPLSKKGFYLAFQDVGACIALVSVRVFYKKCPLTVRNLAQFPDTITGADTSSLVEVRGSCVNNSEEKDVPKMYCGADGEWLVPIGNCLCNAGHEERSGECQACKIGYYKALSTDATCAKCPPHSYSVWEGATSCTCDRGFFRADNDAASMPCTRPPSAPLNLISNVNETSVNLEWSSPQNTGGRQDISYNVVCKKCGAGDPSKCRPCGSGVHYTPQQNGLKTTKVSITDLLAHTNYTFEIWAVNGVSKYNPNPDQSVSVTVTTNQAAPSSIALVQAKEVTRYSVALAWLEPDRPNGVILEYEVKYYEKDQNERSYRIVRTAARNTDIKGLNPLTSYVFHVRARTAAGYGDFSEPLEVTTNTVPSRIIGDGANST

CCC1CN2CCC3(C(=O)N(CCCCCCNC(=O)CCCCC4SCC5NC(=O)NC54)c4ccccc43)C2CC1C(=COC)C(=O)OC (centres unmarked) [Bio-Rhy]
binding to the extracellular domain of EphA4 (pull-down, words) [1]: bound specifically to the extracellular domain of EphA4

Cc1ccc(C)n1-c1ccc(C(=O)O)c(O)c1 [Cpd1, 2-hydroxy-4-(2,5-dimethyl-1-pyrrolyl)benzoic acid, reference compound]
ephrin-A1-stimulated growth cone collapse [2]: also inhibited ephrin-A1-stimulated growth cone collapse
concentration at which ephrin-A1-stimulated growth cone collapse is inhibited ([2]; data not shown): exceeding 10 μM
mEPSC inter-event interval [3, 8]: 542.6 ± 15.4 ms
mEPSC inter-event interval [3, 9]: 559.5 ± 16.6 ms

CC(C)[C@@H]1[C@H]2OC(=O)[C@@H]1[C@@H]1CC[C@@H]3CN(C)[C@H]2[C@@]31C [Dendrobine, dendrobine]
ephrin-A1-stimulated growth cone collapse [2]: inhibited ephrin-A1-stimulated growth cone collapse

CC[C@H]1CN2CC[C@@]3(C(=O)Nc4ccccc43)[C@@H]2C[C@@H]1/C(=C\OC)C(=O)OC [IsoRhy, isorhynchophylline]
inhibition of EphA4 signaling (EphA4 [4]): inactive in inhibiting EphA4 signaling

CC[C@H](CO)Nc1nc(NCc2ccccc2)c2ncn(C(C)C)c2n1 [Ros, roscovitine]
mEPSC inter-event interval [3, 8]: 494.1 ± 11.7 ms
mEPSC inter-event interval [3, 9]: 451.0 ± 11.2 ms

KYLPYWPVLSSL [KYL peptide, reference compound]
mean fEPSP slope, last 10 min after LTP induction ([5]; KYL peptide 100 μM + Aβ, Aβ alone 132±6.06%): 174.9±9.0%
mean fEPSP slope, last 10 min after LTP induction ([5]; KYL peptide 100 μM alone, control 169±6.72%): 164.6±5.7%
Aβ-stimulated tyrosine phosphorylation of EphA4 (EphA4 [6]): abolished the Aβ-stimulated tyrosine phosphorylation of EphA4
dendritic spine density ([7]; KYL peptide alone (30 μM), control 0.66±0.1/μm): 0.55±0.13 /μm
dendritic spine density ([7]; co-treatment of Aβ (24 h) and KYL peptide (30 μM), Aβ alone 0.46±0.21/μm): 0.61±0.18 /μm
mean fEPSP slope, last 10 min after LTP induction (APP/PS1 mutant mice; APP/PS1 (Tg) mice, Tg Con 154.0±8.2%): 181.9±8.6%
mean fEPSP slope, last 10 min after LTP induction (APP/PS1 mutant mice; WT mice, WT Con 191.8±9.5%): 190.1±6.9%
binding of ephrin-A1 to HT-22 cells (EphA4 (HT-22 cells)): reduced the binding of ephrin-A1 to HT-22 cells
